Legend:
[1] = system: BCEC confluent monolayers; assay: BCEC scratch assay; format: cell-based, bovine
Protocol: BCECs (passage 6-10) and HUVEC (passage 6-8) were used in this assay. Cells were grown until about 80% confluency in 6-well plates, washed twice with PBS and then starved in serum-free DMEM (low Glucose, Hyclone) for 5 hrs before making a “scratch” using 1 ml tip. Cell monolayers were briefly washed once with serum-free media, followed by various treatments in media containing 1% FBS. 48 hrs later, the assay was stopped by adding 2 ml 4% paraformaldehyde. 20 min later, fixed cells were stained with 1 ml Crystal Violet (Sigma). Plates were washed gently under the running tap water and air-dried before taking pictures. Images were acquired by ZEISS Discovery […] microscopy equipped with […] camera. Quantification of wound closure was done using AxioVision LE Rel.4.4 software. Six images were taken for each sample and six measurements (in pixel) were made on each image using AxioVision LE Rel.4.4 software.

[2] = system: ERK, AKT, mTOR, CREB, ACC and eNOS; assay: Western blot of signal transduction pathways in BCECs; format: cell-based, bovine
Protocol: (§1) Cells were allowed to reach ˜80% confluency in 12-well plates. […] At various time points, plates were taken out of the incubator and kept on ice. Cell monolayers were first washed once with ice-cold PBS before lysis with 250 μl of Pierce RIPA buffer (ThermoFisher Scientific, Rockford, IL) or use 50 mM Tris-HCl (pH 7.6), 150 mM NaCl, 10% Glycerol, 1% NP-40 containing protease/Phosphatase inhibitor cocktail (100×) (Cell signaling, #5872). Lysates were collected and mixed with 4×Bolt LDS Sample Buffer (Novex, Carlsbad, CA) in the presence of Halt protease inhibitors and phosphatase inhibitor cocktail (ThermoFisher scientific, #NP0007). The samples were subjected to SDS-PAGE (Bolt 4-12% Bis-Tris Plus, Invitrogen) using Bolt MES SDS running buffer or NuPAGE 3-8% Tris-Acetate gel using Tris-Acetate SDS running buffer (Novex). HUVECs (passage 6-8) were plated in EBM-2 basal medium (Lonza) with 0.2% FBS. […] Equal amounts of protein lysates were analyzed by SDS-PAGE and blotted with the indicated antibodies. Proteins were transferred using Tris-Glycine buffer with 20% Methanol (Proteonomics grade) (Apex BioResearch Products). Membranes were first incubated with 5% milk in TBST, pH 7.6 (TEKnova, Hollister, CA), followed by blotting with primary and secondary antibodies. ECL anti-rabbit IgG, horseradish peroxidase linked whole antibody from donkey or sheep anti-mouse were obtained from GE Healthcare (UK limited). SuperSignal West Dura Extended Duration substrate was from ThermoFisher Scientific. In some cases, the same PVDF membranes were stripped by 8-min incubation in the Restore Plus Western Blot Stripping Buffer (ThermoFisher Scientific) to show total specific protein expression, followed by second stripping for β-actin expression.

Bip, CHOP and ATF-6 = assay: Western blot of UPR responsive proteins in BCECs; format: cell-based, bovine
Protocol: as §1

VEGFR2 = assay: Western blot of VEGFR2 molecular mass in BCECs and BRECs; format: cell-based, bovine
Protocol: Glycerol-free PNGase F was obtained from New England Biolabs (Ipswich, MA). Briefly, BCECs were lysed with NP-40 containing proteinase inhibitors (Thermo Scientific, Waltham, MA). Lysates were cleared at 4° C. at 5000 g for 25 mins. Total protein content was measured using Pierce BCA protein assay kit (ThermoScientific). […] of protein was mixed with 10× denaturing buffer and H2O to a total volume of […]. Glycoproteins were denatured at 100° C. for 10 mins, followed by adding Glycobuffer and PNGase F. The reaction was carried out at 37° C. for 2 hr.
as §1

retinal vasculature = assay: Retinal neovascularization after intravitreal injection; format: in vivo, mouse; conditions: intravitreal 500 ng ManN or Kif, 200 ng bFGF; seven days
Protocol: Assessment of retinal angiogenesis following intravitreal administration was done. Briefly, 6-8 weeks old C57BL/6 male mice were randomly allocated to different groups and anesthetized with ketamine/Xylazine cocktail. The indicated amounts of ManN, Kif or bFGF (R&D systems, AF-233-NA) in 1 μl of PBS and PBS vehicle control were injected intravitreally with a 33-gauge Hamilton syringe. Seven days after injection, animals were euthanized. Eyes were then enucleated and fixed in 4% paraformaldehyde (PFA) for 30 mins. Retinas were separated and stained with anti-CD31 immunofluorescence (IF) to evidence the vasculature. Evaluations were performed by an investigator blinded to the treatment. For CD31 IF, rat anti-mouse antibody (BD Biosciences, CAT #550274) was diluted 1:100 and incubated overnight at 4° C. After 4-hour incubation with the Alexa Fluor-488-conjugated anti-rat antibody (Life Technologies, A11006), whole mounts were imaged via the 488 nm channel using A1R Confocal STORM super-resolution system (Nikon). Quantification of vascular density in choroids and retina was carried out by Image J. Each experiment was repeated three times with similar results, and each treatment group consists of 5 individual samples.

JNK/c-Jun = assay: Western blot of JNK pathway activation in BCECs; format: cell-based, bovine; conditions: media without growth factors
Protocol: as §1, with “80%” for “˜80%”

## O=C1N[C@@H]2[C@@H](O)[C@@H](O)[C@H](O)[C@@H](CO)N2C1=O [Kif, Kifunensine, reference compound]
[1]; over 48 hours relative to control
  activity of glycosylation inhibitors in BCEC scratch assay: significant activity
[2]; 40 uM, BCECs
  activation of ERK and AKT: significantly activate
Bip, CHOP and ATF-6; media without growth factors for 24 hours
  Bip expression with glycosylation inhibitors: dose-dependent induction of Bip expression
VEGFR2; 24 hours, SDS-PAGE
  VEGFR2 molecular mass after glycosylation inhibitor treatment: reduction in VEGFR2 molecular mass
Retinal vasculature
  increase in density of retinal vessels compared to PBS group: ~20%
JNK/c-Jun
  activation of JNK pathway (JNK and downstream c-Jun): able to activate the JNK pathway

## N[C@H](C=O)[C@@H](O)[C@H](O)[C@H](O)CO [ManN, 2-Amino-2-deoxy-D-mannose]
[1]; 40 uM ManN or 50 ng/ml of VEGF, after 48 hours
  closure of the scratched area compared to control: significantly accelerated
[1]; both ManN and VEGF
  additivity of ManN and VEGF in scratch assay: additivity was observed
[2]
  activation of ERK, AKT and CREB with both ManN and VEGF compared to ManN or VEGF alone: enhancement in activation
[2]; 40 uM
  activation of ERK, AKT, mTOR and CREB: activated
  activation of eNOS and ACC: significantly activated
  time to activation of eNOS and ACC: 10 to 30 min
  time to stimulation of ERK, AKT and CREB after adding ManN: 10 to 30 min
Bip, CHOP and ATF-6
  synergy between ManN and VEGF in promoting Bip or CHOP expression: No synergy
  time at which accumulation of Bip is evident: 24 h
Bip, CHOP and ATF-6; dose-dependent
  time of CHOP induction: about 6 hours
Bip, CHOP and ATF-6; growing cells deprived of growth factor supply
  Bip expression: significantly turn on Bip expression in a concentration-dependent manner
VEGFR2; BCECs
  duration of ManN effects on protein mass in the absence of exogenous ManN: at least 8 hours
VEGFR2; BCECs and BRECs
  concentration at which VEGFR2 molecular mass shift starts: 40 µM
  effect on apparent molecular mass of VEGFR2: shifted significantly
VEGFR2; BCECs, control major band ~230 KDa, minor ~210 KDa
  new lower molecular weight VEGFR2 bands: 170-200 KDa
VEGFR2; ManN at uM concentrations
  extent of loss of VEGFR2 glycosylation (PNGase F treatment): not all the glycosylation on VEGFR2 was abolished
VEGFR2; after 24 hours
  reversibility of effects on VEGFR2 molecular mass after ManN removal: completely reverse
Retinal vasculature
  increase in density of retinal vessels compared to PBS group: ~30%
JNK/c-Jun
  activation of JNK pathway (JNK and downstream c-Jun): significantly activated

— patent publication US20230390315A1, “COMPOSITIONS AND METHODS FOR TREATING ISCHEMIC CONDITIONS” (The Regents of the University of California, priority 2020, published 2023)
